Source: patent publication US12077503B2, “Substituted cyclic amides and their use as herbicides” (FMC CORPORATION, priority 2015, dated 2024)
Where two headings read alike, the source gives them in different places.

Tests used:
Assay type in all cases: in vivo
rice (Oryra sativa) = assay: Test B flooded paddy test; conditions: Oryza sativa, Flood, 250 g ai/ha; scale of 0 to 100 where 0 is no effect and 100 is complete control; read-out: Rice plant response rating
Summary of the method: (§1)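 Flooding to 3 cm over soil accompanied treatment, which consisted of adding compound to the standing water around 2-leaf plants; depth was then maintained. Visual assessment versus controls followed at 13 to 15 d (scale 0–100, 0 meaning no effect).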

[1] = system: sedge, umbrella (small-flower umbrella sedge, Cyperus difformis); assay: Test B flooded paddy test; conditions: Cyperus difformis, Flood, 250 g ai/ha; scale of 0 to 100 where 0 is no effect and 100 is complete control; read-out: Sedge, Umbrella plant response rating
Summary of the method: as §1

[2] = system: ducksalad (Heteranthera limosa); assay: Test B flooded paddy test; conditions: Heteranthera limosa, Flood, 250 g ai/ha; scale of 0 to 100 where 0 is no effect and 100 is complete control; read-out: Ducksalad plant response rating
Summary of the method: as §1

[3] = system: barnyardgrass (Echinochloa crus-galli); assay: Test B flooded paddy test; conditions: Echinochloa crus-galli, Flood, 250 g ai/ha; scale of 0 to 100 where 0 is no effect and 100 is complete control; read-out: Barnyardgrass plant response rating
Summary of the method: as §1

[4] = system: pigweed (Amaranthus retroflexus); assay: Test A preemergence; conditions: Amaranthus retroflexus, pre-emergence, 240 h; for pest or weed control at 125 g/ha: 125 g ai/ha; for pest or weed control at 500 g/ha: 500 g ai/ha
[5] = system: wheat (Triticum aestivum); assay: Test A postemergence; conditions: Triticum aestivum, post-emergence, 240 h, 125 g ai/ha
Summary of the method: (§2)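 Seeds sprayed preemergence with a directed soil spray, or plants at 2 to 10 cm height and one- to two-leaf stage sprayed postemergence, with test chemicals in a non-phytotoxic solvent mixture containing surfactant, in loam soil–sand blend. Injury rated visually against untreated controls after about 10 d in greenhouse, 0 (no effect) to 100 (complete control).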

[6] = system: Galium (catchweed bedstraw, Galium aparine); assay: Test A postemergence; conditions: Galium, post-emergence, 240 h, 125 g ai/ha
Summary of the method: as §2

Kochia (Kochia scoparia) = assay: Test A postemergence; conditions: Bassia scoparia, post-emergence, 240 h, 125 g ai/ha
Summary of the method: as §2

[7] = system: ryegrass, Italian (Italian ryegrass, Lolium multiflorum); assay: Test A postemergence; conditions: Lolium multiflorum, post-emergence, 240 h, 125 g ai/ha
Summary of the method: as §2

[8] = system: blackgrass (Alopecurus myosuroides); assay: Test A postemergence; conditions: Alopecurus myosuroides, post-emergence, 240 h, 125 g ai/ha
Summary of the method: as §2

[9] = system: pigweed (Amaranthus retroflexus); assay: Test A postemergence; conditions: Amaranthus retroflexus, post-emergence, 240 h, 125 g ai/ha
Summary of the method: as §2

[10] = system: giant foxtail (Setaria faberii); assay: Test A postemergence; conditions: Setaria faberi, post-emergence, 240 h, 125 g ai/ha
Summary of the method: as §2

[11] = system: ragweed (common ragweed, Ambrosia elatior); assay: Test A postemergence; conditions: Ambrosia artemisiifolia, post-emergence, 240 h, 125 g ai/ha
Summary of the method: as §2

corn (Zea mays) = assay: Test A postemergence; conditions: Zea mays, post-emergence, 240 h, 125 g ai/ha; for plant injury at 125 g/ha: postemergence, visual injury rating after approximately 10 d, read-out: Corn plant response rating (0 to 100 scale, 0 no effect, 100 complete control); for Corn plant response rating (crop injury, 0 = no effect, 100 = complete kill) at 125 g/ha: Postemergence, visual injury after approximately 10 d, 0 to 100 scale where 0 is no effect and 100 is complete control
Summary of the method: as §2

[12] = system: barnyardgrass (Echinochloa crus-galli); assay: Test A postemergence; conditions: Echinochloa crus-galli, post-emergence, 240 h, 125 g ai/ha
Summary of the method: as §2

[13] = preemergence, 0 to 100 scale where 0 is no effect and 100 is complete control, read-out: Pigweed plant response rating
[14] = Preemergence, visual injury vs untreated controls after approximately 10 d, read-out: Pigweed plant response rating (0 to 100 scale where 0 is no effect and 100 is complete control)
[15] = postemergence, visual injury rating after approximately 10 d, read-out: Wheat plant response rating (0 to 100 scale, 0 no effect, 100 complete control)
[16] = postemergence, visual injury rating after approximately 10 d, read-out: Galium plant response rating (0 to 100 scale, 0 no effect, 100 complete control)
[17] = postemergence, visual injury rating after approximately 10 d, read-out: Kochia plant response rating (0 to 100 scale, 0 no effect, 100 complete control)
[18] = postemergence, visual injury rating after approximately 10 d, read-out: Ryegrass, Italian plant response rating (0 to 100 scale, 0 no effect, 100 complete control)
[19] = postemergence, visual injury rating after approximately 10 d, read-out: Blackgrass plant response rating (0 to 100 scale, 0 no effect, 100 complete control)
[20] = postemergence, visual injury rating after approximately 10 d, read-out: Pigweed plant response rating (0 to 100 scale, 0 no effect, 100 complete control)
[21] = postemergence, visual injury rating after approximately 10 d, read-out: Foxtail, Giant plant response rating (0 to 100 scale, 0 no effect, 100 complete control)
[22] = postemergence, visual injury rating after approximately 10 d, read-out: Ragweed plant response rating (0 to 100 scale, 0 no effect, 100 complete control)
[23] = postemergence, visual injury rating after approximately 10 d, read-out: Barnyardgrass plant response rating (0 to 100 scale, 0 no effect, 100 complete control)
[24] = Preemergence, visual injury rating after approximately 10 d, read-out: Pigweed plant response rating (0 to 100 scale, 0 is no effect, 100 is complete control)
[25] = preemergence, visual injury rating about 10 d after treatment, 0 to 100 scale (0 no effect, 100 complete control), read-out: Pigweed plant response rating
[26] = Postemergence, visual injury after approximately 10 d, 0 to 100 scale where 0 is no effect and 100 is complete control, read-out: Plant response rating, Wheat
[27] = Postemergence, visual injury after approximately 10 d, 0 to 100 scale where 0 is no effect and 100 is complete control, read-out: Plant response rating, Galium
[28] = Postemergence, visual injury after approximately 10 d, 0 to 100 scale where 0 is no effect and 100 is complete control, read-out: Plant response rating, Kochia
[29] = Postemergence, visual injury after approximately 10 d, 0 to 100 scale where 0 is no effect and 100 is complete control, read-out: Plant response rating, Ryegrass, Italian
[30] = Postemergence, visual injury after approximately 10 d, 0 to 100 scale where 0 is no effect and 100 is complete control, read-out: Plant response rating, Blackgrass
[31] = Postemergence, visual injury after approximately 10 d, 0 to 100 scale where 0 is no effect and 100 is complete control, read-out: Plant response rating, Pigweed
[32] = Postemergence, visual injury after approximately 10 d, 0 to 100 scale where 0 is no effect and 100 is complete control, read-out: Plant response rating, Foxtail, Giant
[33] = Postemergence, visual injury after approximately 10 d, 0 to 100 scale where 0 is no effect and 100 is complete control, read-out: Plant response rating, Ragweed
[34] = Postemergence, visual injury after approximately 10 d, 0 to 100 scale where 0 is no effect and 100 is complete control, read-out: Plant response rating, Barnyardgrass

SMILES	pest or weed control at 250 g/ha (rice (Oryra sativa)) [%]	pest or weed control at 250 g/ha [1] [%]	pest or weed control at 250 g/ha [2] [%]	pest or weed control at 250 g/ha [3] [%]	pest or weed control at 125 g/ha [4, 13] [%]	pest or weed control at 500 g/ha [4, 14] [%]	plant injury at 125 g/ha [5, 15] [%]	pest or weed control at 125 g/ha [6, 16] [%]	pest or weed control at 125 g/ha (Kochia (Kochia scoparia); [17]) [%]	pest or weed control at 125 g/ha [7, 18] [%]	pest or weed control at 125 g/ha [8, 19] [%]	pest or weed control at 125 g/ha [9, 20] [%]	pest or weed control at 125 g/ha [10, 21] [%]	pest or weed control at 125 g/ha [11, 22] [%]	plant injury at 125 g/ha (corn (Zea mays)) [%]	pest or weed control at 125 g/ha [12, 23] [%]	pest or weed control at 125 g/ha [4, 24] [%]	pest or weed control at 500 g/ha [4, 25] [%]	plant injury at 125 g/ha [5, 26] [%]	pest or weed control at 125 g/ha [6, 27] [%]	other results
CN1C[C@H](c2cc(F)c(F)c(F)c2)[C@@H](C(=O)Nc2cccc(F)c2F)C1=O [Compound 879]	0	50	100	90	70	80	70	50	60	70	70	20	80	20	60	100					
COc1cc([C@H]2CN(C)C(=O)[C@@H]2C(=O)Nc2ccccc2F)cc(C(F)(F)F)c1 [Compound 855]	0	0	75	70	30		50	0	0	20	60	20	90	0	70	90					
CCc1cc([C@H]2CNC(=O)[C@@H]2C(=O)Nc2ccccc2F)cs1 [Compound 913]	0	0	90	0	0	0	0	30	0	0	0	0	30	30	0	90					
COc1c(F)ccc([C@H]2CNC(=O)[C@@H]2C(=O)Nc2ccc(F)cc2F)c1Cl [Compound 883]	20	0	80	0	0	0	0	0	30	0	0	0	70	0	0	90					
CCOc1cccc([C@H]2CN(C)C(=O)[C@@H]2C(=O)Nc2cccc(F)c2F)c1 [Compound 956]	0	0	100	70													0	0	30	40	pest or weed control at 125 g/ha (Kochia (Kochia scoparia); [28]): 30%; pest or weed control at 125 g/ha [7, 29]: 50%; pest or weed control at 125 g/ha [8, 30]: 40%; pest or weed control at 125 g/ha [9, 31]: 0%; pest or weed control at 125 g/ha [10, 32]: 80%; pest or weed control at 125 g/ha [11, 33]: 20%; Corn plant response rating (crop injury, 0 = no effect, 100 = complete kill) at 125 g/ha (corn (Zea mays)): 50%; pest or weed control at 125 g/ha [12, 34]: 90%
CC(C)COc1cccc([C@H]2CNC(=O)[C@@H]2C(=O)Nc2cccc(F)c2F)c1 [Compound 965]	0	0	85	20													0	0	20	40	pest or weed control at 125 g/ha (Kochia (Kochia scoparia); [28]): 0%; pest or weed control at 125 g/ha [7, 29]: 0%; pest or weed control at 125 g/ha [8, 30]: 30%; pest or weed control at 125 g/ha [9, 31]: 0%; pest or weed control at 125 g/ha [10, 32]: 70%; pest or weed control at 125 g/ha [11, 33]: 0%; Corn plant response rating (crop injury, 0 = no effect, 100 = complete kill) at 125 g/ha (corn (Zea mays)): 30%; pest or weed control at 125 g/ha [12, 34]: 80%
